Data on one compound can be found in patent US20210380547A1, “UREA DERIVATIVES FOR TREATING AND/OR PREVENTING CANCER” (CENTRE NATIONAL DE LA RECHERCHE SCIENTIFIQUE, priority 2018, published 2021).

As usually defined, the EC50 is the midpoint of the concentration-response curve.

One data set has as its system MDA-MB-231. The data set can be described thus: XTT cell viability assay, MDA-MB-231. Type of data set: cell-based. Conditions: Homo sapiens, XTT assay (48 h), standard deviation of 10%, read-out: EC50 (μM) Breast MDA-MB-231. As to the method: (§1) Fifty microliters of sodium 3′-[1-phenylaminocarbonyl)-3,4-tetrazolium]-bis(4-methoxy-6-nitro) benzene sulfonic acid hydrate (XTT) reagent was added to each well. The assay is based on the cleavage of the yellow tetrazolium salt XTT to form an orange formazan dye by metabolically active cells. The absorbance of the formazan product, reflecting cell viability, was measured at 490 nm. Each assay was performed in quadruplicate.
(§2) Compounds #1-#14 have been assayed as potential anti-proliferative agents against a panel of human breast head and neck, and kidney tumor cells and hematological malignancies, selected on the basis of their aggressiveness (e.g. incurable triple-negative breast cancer cells: MDA-MB-231; kidney ccRCC cells: RCC4, A498 and 786-O and 786R; head and neck cancer cells: CAL33, CAL33RR, CAL27, and CAL27RR; acute myeloid cell lines: OCI-AML2, OCI-AML3, MolM13, and MolM14; myelodysplastic cell line: SM1; and chronic myeloid cell line: CML). All these cell lines share as common denominator the expression of CXCR1 and CXCR2. The EC50 values have been measured by a XTT colorimetric assay, and compared to those of SB-225002, used as a reference; the results are listed in Table 1.
A general note: Formazan colour is commonly taken as a measure of viable cells.

The subject of data set [1] is CXCL7-dependent HuVEC migration. Description: Boyden chamber migration assay, CXCL7-dependent. Conditions: CXCL7 (50 ng/ml), 24 hr. The class given is cell-based. The method, then:
CXCL7 or VEGFA-stimulated chemotaxis assays were monitored using modified Boyden chambers containing polycarbonate membranes (8-μm pores, Transwell; Corning, Sigma). Cells were seeded on the upper side of the filters and chambers were placed on 24-well plates containing CXCL7 (50 ng/ml) or VEGFA (50 ng/ml). Cells were allowed to migrate for 24 hr at 37° C. in 5% CO2. Migratory cells on the lower membrane surface were fixed in 3% paraformaldehyde, stained with 0.1% crystal violet.

Data set [2] concerns healthy human fibroblasts (FHN). The data set can be described thus: FACS analysis of cell death markers (AV, PI), healthy fibroblasts. Type of data set: cell-based. Conditions: 5 μM, 48 h. As to the method:
FIG. 1: Observation by FACS analyses of early (Annexin AV) and late (Propidium Iodide, PI) apoptosis markers expressed by healthy and malignant cells after treatment with compounds #1 and #2 at 5 μM. CT: negative control.
Apoptosis analysis: After stimulation, cells were washed with ice-cold PBS and were stained with the annexin-V-fluos staining kit (Roche, Meylan, France) according to the manufacturer's procedure. Fluorescence was measured by using the FL2 (AV) and FL3 (propidium iodide, PI) channels of a fluorescence-activated cell sorter apparatus (Calibur cytometer).
To complete these XTT assays, malignant (ccRCC and hematological) and healthy (human fibroblasts FHN) cells have been grown with compounds #1 or #2, and after 48h the expression of cell death markers (AV and PI) has been quantified by FACS analyses (FIG. 1).
A general note: A flow cytometer gives signals particle by particle.

The next data set has as its system CAL27RR. Description: XTT cell viability assay, CAL27RR (cisplatin-resistant). The class given is cell-based, human. The method, then:
A, B: Naive (Cal27, A), and cisplatine-resistant (Cal27R, B) Cal27 cells, were treated with compound #1 or cisplatine (1 to 10 μM) for 48 hr. Cell viability was measured by XTT assays;
C, D: Cal27 (C), cal27R (D), were treated with 2.5 μM compound #1, 2.5 μM cisplatin for 24 h to 96 h. The metabolism of cells was measured by XTT assay.
as §1, §2

`O=C(Nc1cccc(Cl)c1)Nc1nc2ccc([N+](=O)[O-])cc2s1` [Compound #1, 1-(3-chlorophenyl)-3-(6-nitrobenzo[d]thiazol-2-yl)urea]: the EC50 in the data set on MDA-MB-231 was 2.5 µM; in the data set with CAL27RR (Homo sapiens, light or radiation study, XTT assay (48 h), resistant to irradiation and cisplatin, standard deviation of 10%, read-out: EC50 (μM) Head and Neck CAL27RR), 2 µM. Further, in data set [1], the “decrease of HuVECs motility” value is reported as “more than 50%”. In data set [2], the “apoptosis of healthy human fibroblasts (FHN)” value is “no increased apoptosis over the control experiment”. In addition, the “time of treatment to total inhibition of proliferation” value in the data set with CAL27RR (Cal27R cells, 2.5 μM, XTT 24 h to 96 h) is “approximately 70 hours”.
